In US9206206B2, “Oxidized lipid compounds and uses thereof” (Vascular Biogenics Ltd., priority 2008, dated 2015):
Values joined by “and” are separate entries in the source; they are usually repeats but may differ in a detail not shown here. Equal values may be shown once. Read-outs that look alike come from different tables or passages of the source.

Legend:
[1] = tested on: tyrosine phosphorylation in primary macrophages; assay: Tyrosine phosphorylation assay in primary macrophages (Western blot); type: cell-based, mouse
Procedure: (§1) Tyrosine Phosphorylation Assay: Tyrosine phosphorylation in macrophages or bone marrow-derived cells (BMDCs) of mice was assayed. Mouse primary macrophages were isolated from the peritoneum of 7-8 week old C57BL/6 female mice following thioglycollate stimulation. […] Mouse primary bone marrow-derived cells were isolated by flushing bone marrow out of the femur and tibia of female SJL mice using cold RPMI-1640. […] Cells were then washed, resuspended in the same buffer and depleted of B and T cells on a Midi-Macs separation unit through a LD or LS column (Miltenyi Biotech). […] The medium was replaced every other day. […] Proteins with phosphorylated tyrosine were then observed by Western blot, using a monoclonal anti-phosphotyrosine antibody. Western blotting for ERK1/2 or α-tubulin was performed as a control for protein loading.

[2] = tested on: tyrosine phosphorylation in bone marrow-derived cells; assay: Tyrosine phosphorylation assay in bone marrow-derived cells (Western blot); type: cell-based, mouse
Procedure: as §1

[3] = tested on: mouse peritoneal macrophages; assay: In vitro toxicity assay; type: cell-based; settings: for LD50: crystal violet cell number
Procedure: Thioglycollate-elicited mouse peritoneal macrophages were washed, counted and seeded (2×10^5 to 3×10^5 cells per well in 24-well plates) in triplicate wells in medium containing RPMI-1640, L-glutamine, 10% FBS and antibiotics (penicillin/streptomycin). After a recovery period of 24 hours, the tested compound (or controls) was added to the cell medium at doses of 2, 10, 20, 50, 100 or 150 μg/ml, keeping the added volume equal in all treatments by complementing the volume with solvent.
Following addition of the compounds, the cells were incubated for an additional 24 hours, after which the cells were washed, fixed with a solution of 10% methanol/10% acetic acid and stained with crystal violet (0.4% in 20% ethanol). Cell numbers were measured by determining optical density at 595 nm. Cells incubated with vehicle (PBS with 1% ethanol) were used as a control, to which cell numbers in treated samples were normalized.
Data are presented as mean±standard deviation. Statistical significance relative to vehicle-treated cells was calculated using a student's t-test, with p-values of less than 0.05 being considered as indicating statistical significance.

IL12/23 p40 = assay: In vitro IL12/23p40 production assay; type: cell-based, mouse; settings: bone marrow-derived cells
Procedure: In Vitro IL12/23p40 Production Assay:
Bone marrow derived cells (BMDCs) were obtained from the femur and tibia of female C57BL mice, cultured, and seeded at a concentration of 10^6 cells/ml 5-6 days post-culturing, as described hereinabove for the tyrosine phosphorylation assay.
The tested compound was then added to the cells for 1 hour at a concentration of 1, 2.5, 5, 10 or 20 μg/ml. The cells were activated for IL12/23p40 production by incubation for 24 hours with 10 μg/ml peptidoglycan (PGN). Cytokine production from the supernatant was measured by ELISA. Activated cells without the tested compound were used as the control.

[4] = peritoneal macrophages, 24 hours
[5] = peritoneal macrophages, 24 hours, doses 2-150 μg/ml
[6] = compound 1, 2.5, 5, 10 or 20 μg/ml for 1 hour, then 10 μg/ml peptidoglycan 24 hours, ELISA
[7] = peritoneal macrophages, 24 hours, only one of two experiments
[8] = peritoneal macrophages, 24 hours, up to 150 μg/ml

With “1-(2-octyl)dodecyl-2-(4-carboxy)butyl-glycero-3-phosphocholine [VB-221]” the phosphotyrosine levels ([1]; 5 ng/ml (8 μM)) was “induction of tyrosine phosphorylation”, the phosphotyrosine levels ([1]; 10 ng/ml (16 μM)) was “induction of tyrosine phosphorylation” and the phosphotyrosine levels ([1]; 20 ng/ml) was “induction of tyrosine phosphorylation”.
With “1-(2-octyl)dodecyl-2-(4-carboxy)butyl-glycero-3-phosphoethanolamine [VB-222]” the phosphotyrosine levels ([1]; 10 μg/ml, 10 minutes) was “induction of tyrosine phosphorylation” and the phosphotyrosine levels ([1]; 20 μg/ml, 10 minutes) was “induction of tyrosine phosphorylation”.
For `CCCCCCCCCCCCCCCCOCC(COP(=O)([O-])OCC[N+](C)(C)C)OCCCCCCC(=O)O` (racemic) [racemic CI-203, 1-hexadecyl-2-(6-carboxy)hexanyl-glycero-3-phosphocholine], the phosphotyrosine levels ([2]; 20 μg/ml (33 μM)) was “caused a reduction in phosphotyrosine levels”.
For `CCCCCCCCCCCCCCCCSCC(COP(=O)([O-])OCC[N+](C)(C)C)OCCCCC(=O)O` (centres unmarked) [1-S-CI-201, 1-S-hexadecyl-2-(4-carboxy)butyl-glycero-3-phosphocholine], the phosphotyrosine levels ([1]; 10 μg/ml, 10 minutes) was “little effect, if any” and the phosphotyrosine levels ([1]; 20 μg/ml, 10 minutes) was “caused a reduction in phosphotyrosine levels”.
For `CCCCCCCCCCCCCCCCSCC(COP(=O)(O)OCCN)OCCCCC(=O)O` (centres unmarked) [1-S-CI-202, 1-S-hexadecyl-2-(4-carboxy)butyl-glycero-3-phosphoethanolamine], the phosphotyrosine levels ([1]; 10 μg/ml, 10 minutes) was “caused an increase in phosphotyrosine levels” and the phosphotyrosine levels ([1]; 20 μg/ml, 10 minutes) was “caused a reduction in phosphotyrosine levels”.
With `CCCCCCCCCCCCCCCCOC[C@H](COP(=O)([O-])OCC[N+](C)(C)C)OCCCCCCC(=O)O` [(R)-CI-203, (R)-1-hexadecyl-2-(6-carboxy)hexanyl-sn-glycero-3-phosphocholine] the phosphotyrosine levels ([2]; 20 μg/ml (33 μM)) was “caused a reduction in phosphotyrosine levels”.
With `CCCCCCCCCCCCCCCCOCC(COP(=O)(O)O)OCCCCC(=O)O` (centres unmarked) [CI-201-PA, 1-hexadecyl-2-(4-carboxy)butyl-glycero-3-phosphate] the “dose at which (significant) toxicity was detected” value ([3]; mouse, 24 h) was at least 20 µg/mL, the “dose at which toxicity was detected in only one experiment” value (from here on “dose at which toxicity was detected”) ([3]; mouse, 24 h) was 10 µg/mL and the LD50 [3, 4] was “approximately 50 μg/ml”.
With `CCCCCCCCCCCCCCCCOCC(COP(=O)([O-])OCC[N+](C)(C)C)OCCCCCCC(=O)O` (centres unmarked) [CI-203, 1-Hexadecyl-2-(6-carboxy)hexanyl-glycero-3-phosphocholine] the “dose at which (significant) toxicity was detected” value [3, 5] was 100 µg/mL, the phosphotyrosine levels ([2]; 1 μg/ml (1.7 μM)) was “no apparent effect” and the “production of IL12/23 p40” value (IL12/23 p40; [6]) was “inhibited production of IL12/23 p40 by bone marrow-derived cells in a dose-dependent manner”.
`CCCCCCCCCCCCCCCCOCC(COP(=O)([O-])OCC[N+](C)(C)C)OCCCC(=O)O` (centres unmarked) [CI-205, 1-hexadecyl-2-(3-carboxy)propyl-glycero-3-phosphocholine] was tested, and the “dose at which (significant) toxicity was detected” value [3, 5] was 100 µg/mL, the “dose at which toxicity was detected” value [3, 7] was 20 to 50 µg/mL and the phosphotyrosine levels ([1]; 20 μg/ml, 10 minutes) was “causes reduction in phosphotyrosine levels”.
`CCCCCCCCCCCCCCCCOCC(COP(=O)(O)OCCN)OCCCC(=O)O` (centres unmarked) [CI-206, 1-hexadecyl-2-(3-carboxy)propyl-glycero-3-phosphoethanolamine] was tested, and the “dose at which (significant) toxicity was detected” value ([3]; mouse, 24 h) was at least 50 µg/mL and the phosphotyrosine levels ([1]; 20 μg/ml, 10 minutes) was “causes reduction in phosphotyrosine levels”.
For `CCCCCCCCCCCCCCCCOCC(COP(=O)([O-])OCC[N+](C)(C)C)OCCCCC(=O)OC` (centres unmarked) [CI-208, 1-hexadecyl-2-(4-methylcarboxy)butyl-glycero-3-phosphocholine], the “dose at which toxicity was detected” value ([3]; mouse, 24 h) was 20 µg/mL and the phosphotyrosine levels ([1]; 20 ng/ml) was “causes a reduction in phosphotyrosine levels, which is stronger than the reduction caused by treatment with 20 ng/ml of the CI-201 control”.
In the case of `CCCCCCCCCCCCOCC(COP(=O)([O-])OCC[N+](C)(C)C)OCCCCC(=O)O` (centres unmarked) [CI-209, 1-dodecyl-2-(4-carboxy)butyl-glycero-3-phosphocholine], the LD50 [3, 4] is reported as “above 150 μg/ml and > 286 μM”, the “toxicity within the range of tested doses” value (from here on “toxicity within the range”) [3, 8] is reported as “toxicity of CI-209 was not observed at any of the tested doses” and the “production of IL12/23 p40” value (IL12/23 p40; [6]) is reported as “inhibited production of IL12/23 p40 by bone marrow-derived cells in a dose-dependent manner”. For the same compound, the phosphotyrosine levels ([1]; 20 μg/ml, 10 minutes) was “induced an increase in phosphotyrosine levels”.
For `CCCCCCCCCCCCCCCCOCC(COP(=O)(O)OCCNC(=O)CCCC(=O)O)OCCCCC(=O)O` (centres unmarked) [CI-210, 1-hexadecyl-2-(4-carboxy)butyl-glycero-3-phosphoethanolamine-N-glutaric acid], the “dose at which (significant) toxicity was detected” value ([3]; mouse, 24 h) was at least 100 µg/mL, the “dose at which significant toxicity was observed” value ([3]; mouse, 24 h) was at least 156.6 µM and the LD50 [3, 4] was “approximately 150 μg/ml and ~235 μM”. The “production of IL12/23 p40” value (IL12/23 p40; [6]) was “inhibited production of IL12/23 p40 by bone marrow-derived cells in a dose-dependent manner” and the phosphotyrosine levels ([1]; 20 μg/ml, 10 minutes) was “induced an increase in phosphotyrosine levels”.
`C[N+](C)(C)CCOP(=O)([O-])OCC(COCCCCCCCCCCCCCCCC(=O)O)OCCCCC(=O)O` (centres unmarked) [CI-213, 1-(15′-carboxy)pentadecyl-2-(4-carboxy)butyl-glycero-3-phosphocholine] was tested, and the “dose at which a significant decrease in cell number was detected in only one experiment” value ([3]; peritoneal macrophages, 24 hours, only one experiment) was 163.5 µM, the “dose at which toxicity was detected” value [3, 7] was 100 µg/mL and the “toxicity within the range” value [3, 8] was “did not clearly exhibit significant toxicity within the range of tested doses”.
In the case of `NCCOP(=O)(O)OCC(COCCCCCCCCCCCCCCCC(=O)O)OCCCCC(=O)O` (centres unmarked) [CI-214, 1-(15′-carboxy)pentadecyl-2-(4-carboxy)butyl-glycero-3-phosphoethanolamine], the “toxicity within the range” value [3] is reported as “did not clearly exhibit significant toxicity within the range of tested doses”, the “dose at which a significant decrease in cell number was detected in only one experiment” value ([3]; mouse, 24 h) is reported as 175.5 µM and the “dose at which toxicity was detected” value ([3]; mouse, 24 h) is reported as 100 µg/mL.
In the case of `CCCCCCCCCCCCCCCCCCOCC(COP(=O)([O-])OCC[N+](C)(C)C)OCCCCC(=O)O` (centres unmarked) [CI-215, 1-octadecyl-2-(4-carboxy)butyl-glycero-3-phosphocholine], the phosphotyrosine levels ([1]; 10 μg/ml, 10 minutes) is reported as “induced an increase in phosphotyrosine levels” and the phosphotyrosine levels ([1]; 20 μg/ml, 10 minutes) is reported as “caused a decrease in phosphotyrosine levels”.
For `CCCCCCCCCCCCCCCCCCOCC(COP(=O)(O)OCCN)OCCCCC(=O)O` (centres unmarked) [CI-216, 1-octadecyl-2-(4-carboxy)butyl-glycero-3-phosphoethanolamine], the “production of IL12/23 p40” value (IL12/23 p40; 20 μg/ml) was “inhibited production of IL12/23 p40 by bone marrow-derived cells”, the phosphotyrosine levels ([1]; 10 μg/ml, 10 minutes) was “induction of tyrosine phosphorylation” and the phosphotyrosine levels ([1]; 20 μg/ml, 10 minutes) was “reduction in phosphotyrosine levels”.
In the case of `CCCCCCCCCCCCCCCCOCC(COP(=O)([O-])OCC[N+](C)(C)C)OCCC(=O)O` (centres unmarked) [CI-217, 1-Hexadecyl-2-(2-carboxy)ethyl-glycero-3-phosphocholine], the phosphotyrosine levels ([1]; 10 μg/ml, 10 minutes) is reported as “little effect” and the phosphotyrosine levels ([1]; 20 μg/ml, 10 minutes) is reported as “caused a reduction in phosphotyrosine levels”.
In the case of `CCCCCCCCCCCCCCCCCCCCOCC(COP(=O)([O-])OCC[N+](C)(C)C)OCCCCC(=O)O` (centres unmarked) [CI-219, 1-eicosanyl-2-(4-carboxy)butyl-glycero-3-phosphocholine], the phosphotyrosine levels ([1]; 10 μg/ml, 10 minutes) is reported as “little effect, if any” and the phosphotyrosine levels ([1]; 20 μg/ml, 10 minutes) is reported as “caused a reduction in phosphotyrosine levels”.
In the case of `CCCCCCCCCCCCCCCCCCCCOCC(COP(=O)(O)OCCN)OCCCCC(=O)O` (centres unmarked) [CI-220, 1-eicosanyl-2-(4-carboxy)butyl-glycero-3-phosphoethanolamine], the phosphotyrosine levels ([1]; 10 μg/ml, 10 minutes) is reported as “little effect, if any” and the phosphotyrosine levels ([1]; 20 μg/ml, 10 minutes) is reported as “caused a reduction in phosphotyrosine levels”.
`CCCCCCCCCCCCCCCCOCC(COP(=O)(O)OCC(N)C(=O)O)OCCCCC(=O)O` (centres unmarked) [VB-223, 1-hexadecyl-2-(4-carboxy)butyl-glycero-3-phosphoserine] was tested, and the phosphotyrosine levels ([1]; 1 μg/ml, 10 minutes) was “perhaps also”, the phosphotyrosine levels ([1]; 5 μg/ml, 10 minutes) was “induction of tyrosine phosphorylation” and the phosphotyrosine levels ([1]; 10 μg/ml, 10 minutes) was “induction of tyrosine phosphorylation”. The phosphotyrosine levels ([1]; 20 μg/ml, 10 minutes) was “induction of tyrosine phosphorylation”.
With `CCCCCCCCCCCCCCCCOCC(COP(=O)([O-])OCC[N+](C)(C)C)OCCCCC(OCC)OCC` (centres unmarked) [diEtAc, 1-hexadecyl-2-(5′,5′-diethoxypentyl)-glycero-3-phosphocholine] the “dose at which (significant) toxicity was detected” value ([3]; mouse, 24 h) was at least 20 µg/mL and the “dose at which toxicity was detected” value ([3]; mouse, 24 h) was 10 µg/mL.
